The record followed here is patent US20060281680A1, “Methods and compositions for modulating vascular integrity” (GENENTECH, INC., priority 2005, published 2006).

Common to all, as to type: cell-based, human
One assay concerns Cox-2, E-selectin, TF. In words: Real-time RT-PCR of inflammatory marker / VEGF target genes in HUVECs. The text has this:
(§1) Cells and cell assays. Primary human endothelial cells were purchased from Clonetics (Santa Rosa, Calif.) and cultured according to the manufacturer's instructions. For gene calling experiments, human umbilical vein endothelial cells (HUVECs) were purchased from Clonetics (BioWhittaker, Walkersville, Md.) and maintained in endothelial growth medium (EBM-2) complemented with 5% fetal calf serum (FCS) following the manufacturer's instructions. Cells (1×107) were split at a cell density of 19 000 cell/cm2 and triplicate experiments for each condition were run in parallel. Twenty-four hours after plating the cells, cell were washed 3 times with phosphate-buffered saline (PBS) and media (Clonetics) containing either 0.1% bovine serum albumin (BSA) or 0.1% BSA plus VEGF (30 ng/mL) or 5% FCS. RNA isolation and reverse transcription-PCR (RT-PCR) analysis was performed as described.^21 For cell culture experiments, the following conditions were used: human (h) VEGF, 30 ng/mL; hTNF-α, 10 ng/mL; PMA, 200 ng/mL (Calbiochem, LaJolla, Calif.); CsA, 1 μM (Calbiochem); IO 5 μM (Sigma, St Louis, Mo.); thapsigargin, 50 nM (Sigma). In one instance inhibiting (si) RNAs were generated by Dharmacon (Lafayette, Colo.) based on the full-length cDNAs of the respective gene and using the “Smart-pool” service (Dharmacon, Lafayette, Colo.). For adenoviral transduction survival experiments, human umbilical vein endothelial cells (HUVECs) were maintained in endothelial growth medium (EBM-2) complemented with 5% FCS following the manufacturer's instructions. 3×10^5 cells were split per well of a 6 well plate (Primaria, BD Biosciences, Bedford, Mass.) and duplicate experiments for each condition were run in parallel. Cells were infected with adenovirus (MOI=100) encoding for a gD peptide (Ad-Control), DSCR1 (Ad-DSCR1) or an antisense construct with the coding sequence inverted (Ad-DSCR1-AS) for 2 h in serum free media containing 10 mM […] and 10 nM MgCl2 on a vertical shaker at room temperature. Thereafter, 5 times the volume of regular growth medium containing 5% FCS was added and cells were kept for 1 day in a CO2 incubator. Thereafter, cells were washed three times with PBS and basal media (Clonetics, Santa Rosa, Calif.) containing 0.1 % BSA was added and PMA/IO, H202, and ZVAD as indicated. 24 hours after serum starvation and dosing, cell were counted on a Coulter brand style cell counter. For cell culture experiments, the following conditions were used: PMA: 200 ng/ml (Calbiochem, LaJolla, Calif.), Ionomycine: 5 μM (Sigma, St. Louis, Mo.), a 3% H202 solution was diluted 1:300 in basal media, 0.1% BSA to result in a 0.01% H202 solution, ZVAD 5 μM.
Background: Quantitative PCR measures a nucleic acid by following its amplification.

The test system of assay [1] is DSCR1. Put plainly: Western blot of DSCR1 protein in whole cell extracts of HUVECs. The settings on record: 6 hours of stimulation. The procedure: Cells cultured in 10-cm dishes were washed twice in Tris (tris(hydroxymethyl)aminomethane)-buffered saline, and 0.6 mL RIPA buffer (10 mM PBS, 1% Nonidet P-40, 0.5% sodium deoxycholate, 0.1% sodium dodecyl sulfate [SDS], […] phenylmethylsulfonyl fluoride, 30 μg/mL aprotinin, 1 mM sodium orthovanadate), and protease inhibitors (Roche Pharmaceuticals, Gaithersburg, Md.) were added. Mouse monoclonal antibody (mAb) directed against human NFATc 1, c2, and c3 was purchased from Santa Cruz Biotechnology (Santa Cruz, Calif.). Affinity-purified goat polyclonal antibody against human E-selectin, vascular cell adhesion molecule-1 (VCAM-1), intercellular adhesion molecule-1 (ICAM-1), and Cox-2 was from BD Pharmingen. Total endothelial cell extract, polyacrylamide gel electrophoresis (PAGE), blotting, and immunodetection were performed according to the Santa Cruz Biotechnology protocol. A total of […] whole-cell extract was loaded on each lane of a 4% to 16% polyacrylamide gel. The enhanced chemiluminescence (ECL) reaction kit was purchased from Amersham Pharmacia Biotech (Piscataway, N.J.), and horseradish peroxidase streptavidin from Vector Laboratories (Burlingame, Calif.) was used. For NFATc1 experiments, equal amounts of cell extract were loaded to visualize NFATc1 (mAb 7A6; 1:500; Santa Cruz Biotechnology) and the loading control α-tubulin (mAb from ICN, Santa Ana, Calif.; 1:5000). For Cox-2 and TF immunoblot analysis equal amounts of cell lysate were loaded on a 6% to 12% gradient SDS-PAGE. Cox-2 was analyzed with an anti-Cox2 mAb (RDI, 1:500) and TF with an anti-hTF mAb (clone 7G11) was generated at Genentech, and used at a 1:500 dilution. Before loading the samples on the gel, the protein amounts were quantified and adjusted accordingly. As loading control, an anti-γ-adaptin mAb was used (1:1000) on a 4% to 20% polyacrylamide gel.
DSCR1 was PCR amplified with primers DSCR1-EcoRI-Pro 5′, adding an extra proline and DSCR1-Stop-XhoI 3′, by using DSCR1 cDNA as a template and cloned into pGEX-KG. GST-DSCR1 was expressed and purified essentially as described previously.^23 Polyclonal rabbit anti-GST-DSCR1 was prepared by immunization with recombinant GST-DSCR1. Filtered crude serum was used for Western blots (1:400).
For orientation: In western blotting, separated proteins are transferred to a membrane and probed.

For assay [2], the system named is DSCR1. In words: DSCR1 expression by real-time RT-PCR in HPAECs, HMVECs and HUAECs. Particulars: HMVECs, HUAECs. An excerpt: (§2) Cells and cell assays. Primary human endothelial cells were purchased from Clonetics (Santa Rosa, Calif.) and cultured according to the manufacturer's instructions. For gene calling experiments, human umbilical vein endothelial cells (HUVECs) were purchased from Clonetics (BioWhittaker, Walkersville, Md.) and maintained in endothelial growth medium (EBM-2) complemented with 5% fetal calf serum (FCS) following the manufacturer's instructions. Cells (1×107) were split at a cell density of 19 000 cell/cm2 and triplicate experiments for each condition were run in parallel. Twenty-four hours after plating the cells, cell were washed 3 times with phosphate-buffered saline (PBS) and media (Clonetics) containing either 0.1% bovine serum albumin (BSA) or 0.1% BSA plus VEGF (30 ng/mL) or 5% FCS. RNA isolation and reverse transcription-PCR (RT-PCR) analysis was performed as described.^21 For cell culture experiments, the following conditions were used: human (h) VEGF, 30 ng/mL; hTNF-α, 10 ng/mL; PMA, 200 ng/mL (Calbiochem, LaJolla, Calif.); CsA, 1 μM (Calbiochem); IO 5 μM (Sigma, St Louis, Mo.); thapsigargin, 50 nM (Sigma). […] 24 hours after serum starvation and dosing, cell were counted on a Coulter brand style cell counter. […]

Assay [3] deals with DSCR1. In words: DSCR1 expression analysis by real-time RT-PCR (TaqMan) in HUVECs. The settings on record: serum-starved HUVECs, over 36 hours.
Text: as §1

A further assay deals with NFATc1. Put plainly: IHC/immunofluorescence analysis of nuclear translocation of NFATc1. Particulars: endothelial cells, 20 minutes after VEGF 30 ng/mL; adenoviral transduction MOI=100. The protocol:
Primary human endothelial cells (7×10^3 cells/cm^2) were seeded into each well of an 8-chamber microscope slide (Nalgene Nunc, Naperville, Ill.) 24 hours prior to staining. Cells were infected with adenovirus (multiplicity of infection [MOI]=100) encoding for LacZ or DSCR1 for 2 hours in serum-free media containing 10 mM CaCl2 and 10 nM MgCl2 on a vertical shaker at room temperature. Thereafter, 5 times the volume of regular growth medium was added and cells were kept for 2 days in a CO2 incubator. After replacing the media, cells were treated with hVEGF at a concentration of 30 ng/mL for 20 minutes. Prior to incubation with various antibodies, cells were fixed with methanol for 4 minutes at −20° C. and washed with PBS at room temperature. Cells were incubated in PBS containing the primary mouse antihuman NFATc1 antibody (sc7294, Santa Cruz Biotechnology) for 1 hour at room temperature. Cells were then washed 3 times with PBS and incubated in PBS containing Alexa Fluor 488 antimouse IgG (Molecular Probes, Eugene, Oreg.). Cells were finally washed 3 times with PBS and mounted beneath coverslips in Vectashield medium (Vector Laboratories). Microscopy and photography were conducted using a Zeiss Axiovert 200 fluorescence microscope fitted with an AxioCam MR monochrome camera (Zeiss, Thornwood, N.Y.) using a ×63 oil objective.

The test system of assay [4] is DSCR1. In words: GeneCalling analysis of DSCR1 mRNA expression in HUVECs. Particulars: VEGF 30 ng/mL, relative to basal conditions.
Text: as §2

In the next assay the test system is HUVECs. In words: GeneCalling gene expression profiles of stimulated HUVECs.
Text: as §2

Consider VEGF, for which, in the assay on Cox-2, E-selectin, TF (HUVECs, VEGF stimulation, entire experiment), the “expression of Bcl-2” value is reported as “consistently expressed”. The “GM-CSF, TF, COX-2, VCAM-1 and E-selectin RNA levels” value with Cox-2, E-selectin, TF (HUVECs, between 0 and 2 hours after VEGF) is given as “increased”; in the assay with Cox-2, E-selectin, TF (HUVECs, between 6 and 36 hours after VEGF, compared to untreated cells), “reversed into repression”. Besides, in the assay with Cox-2, E-selectin, TF (endothelial cells, 4 hours of incubation), the “increase in gene expression (COX2, E-selectin, TF mRNA)” value was 2- to 3 fold. Besides, in the assay with DSCR1 [1], the DSCR1 protein levels entry is on record as “induction of DSCR1”. Moreover, the “DSCR1 expression (real-time RT-PCR)” value in the assay with DSCR1 [2] is reported as “increased levels of DSCR1 expression”. The “DSCR1 expression levels (real-time RT-PCR)” value in the assay on DSCR1 [3] is “induced prolonged expression of DSCR1”. In the assay with NFATc1, the “nuclear localization of NFATc1” value was “prominent nuclear localization of NFATc1”. In addition, the “induced DSCR1 mRNA expression” value was determined as 4.8 fold in the assay with DSCR1 [4] (after 6 hours) and 2.9 fold with DSCR1 [4] (after 24 hours). Further, the “changes in traces representing alterations in expression of genes” value was found to be 1.7% in the assay on HUVECs (after 6 hours) and 3.4% in the assay with HUVECs (after 24 hours).
